Where two headings read alike, the source gives them in different places.
Columns and labels:
[1] = system: HG23 cells
[2] = system: NV in the replicon harboring cells (HG23 cells); test: microbe, parasite or virus in culture; type: cell-based, norovirus (NV)
[3] = molecular target: 3CLpro of MERS-CoV (Middle East respiratory syndrome-related coronavirus, UniProt K9N7C7); test: biochemical; type: biochemical
[4] = molecular target: NV 3CLpro (Norovirus, UniProt Q83883); test: biochemical; type: biochemical
Sequence of NV 3CLpro (Q83883 1101-1281): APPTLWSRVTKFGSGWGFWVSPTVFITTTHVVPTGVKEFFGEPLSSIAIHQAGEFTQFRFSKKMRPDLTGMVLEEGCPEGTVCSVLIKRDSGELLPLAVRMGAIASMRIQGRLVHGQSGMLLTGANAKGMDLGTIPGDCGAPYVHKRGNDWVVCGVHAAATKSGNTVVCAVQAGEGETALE

[5] = in vitro; conditions: human
[6] = system: FIPV; test: microbe, parasite or virus in culture; type: cell-based; conditions: Alphacoronavirus 1, CRFK, read-out: EC50 in cell culture (μM) FIPV
[7] = Nonspecific cytotoxic effects (CC50), CytoTox 96 kit; conditions: Huh-7, CRFK or CCL1 cells (confluent, 96-well plates)
[8] = system: MERS-CoV; test: microbe, parasite or virus in culture; type: cell-based; conditions: for EC50: Middle East respiratory syndrome-related coronavirus, Huh-7, read-out: EC50 in cell culture (μM) MERS-CoV
[9] = molecular target: T1, 3CLpro of SARS-CoV-2 (Severe acute respiratory syndrome coronavirus 2, UniProt P0DTD1); test: biochemical; type: biochemical
T1 construct: The codon-optimized cDNA of full length of 3CLpro of SARS-CoV-2; 6xHis (N); made in house; pET-28a(+) vector (points to E. coli, my inference)

[10] = system: MHV-1; test: microbe, parasite or virus in culture; type: cell-based, mouse hepatitis virus (MHV); conditions: Murine coronavirus, read-out: EC50 in cell culture (μM) MHV
[11] = molecular target: 3CLpro of SARS-CoV (Severe acute respiratory syndrome coronavirus, UniProt P0C6X7); type: biochemical; conditions: read-out: IC50 in enzyme assay (μM) SARS-CoV
[12] = system: Huh-7, CRFK or CCL1 cells; test: Nonspecific cytotoxic effects (CC50), CytoTox 96 kit; conditions: Huh-7, CRFK, or CCL1 cells, Table 7
[13] = read-out: MERS-CoV IC50(μM) Enzyme
[14] = read-out: MERS-CoV IC50 (uM) enzyme
[15] = read-out: IC50 in enzyme assay (μM) MERS-CoV

Sequence of 3CLpro of MERS-CoV (K9N7C7 3248-3553 limits assumed): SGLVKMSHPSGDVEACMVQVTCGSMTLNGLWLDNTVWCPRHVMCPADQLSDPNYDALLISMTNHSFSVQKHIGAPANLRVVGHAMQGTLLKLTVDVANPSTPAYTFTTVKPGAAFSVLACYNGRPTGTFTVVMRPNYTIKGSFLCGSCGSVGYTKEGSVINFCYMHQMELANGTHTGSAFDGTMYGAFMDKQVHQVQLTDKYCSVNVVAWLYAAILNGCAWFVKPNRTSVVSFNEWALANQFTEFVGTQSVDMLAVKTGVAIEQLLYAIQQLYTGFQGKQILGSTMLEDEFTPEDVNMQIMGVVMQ

CC(C)(COC(=O)N[C@@H](CC1CCCCC1)C(=O)N[C@H](C=O)C[C@@H]1CCNC1=O)c1cccc(Cl)c1 [Compound 5d (Scheme 2)]
CC50 [1]: 13.3 ± 1.27 µM
EC50 ([2]; read-out: EC50 (μM) ± SD): 0.07 ± 0.01 µM
IC50 [3, 13]: 1.9 µM
IC50 ([4]; read-out: IC50 (μM) ± SD): 0.23 ± 0.04 µM

CC(C)C[C@H](NC(=O)OCC(C)(C)c1ccccc1)C(=O)N[C@H](C=O)C[C@@H]1CCNC1=O [Compound 5f (Scheme 2)]
CC50 [1]: > 100 µM
EC50 ([2]; read-out: EC50 (μM) ± SD): 0.65 ± 0.07 µM
IC50 [3, 13]: 0.8 µM
IC50 ([4]; read-out: IC50 (μM) ± SD): 0.45 ± 0.07 µM

CC(C)(Cc1cccc(Cl)c1)OC(=O)N[C@@H](CC1CCCCC1)C(=O)N[C@H](C=O)C[C@@H]1CCNC1=O [Compound 5h (Scheme 2)]
CC50 [1]: 15.6 ± 1.8 µM
EC50 ([2]; read-out: EC50 (μM) ± SD): 5.4 ± 1.1 µM
IC50 [3, 14]: > 10 µM
IC50 ([4]; read-out: IC50 (μM) ± SD): 7.7 ± 1.7 µM

CC(C)C[C@H](NC(=O)OC(C)(C)Cc1cccc(Cl)c1)C(=O)N[C@H](C=O)C[C@@H]1CCNC1=O [Compound 5i (Scheme 2)]
CC50 [1]: > 100 µM
EC50 ([2]; read-out: EC50 (μM) ± SD): 0.9 ± 0.21 µM
IC50 [3, 14]: 1.1 µM
IC50 ([4]; read-out: IC50 (μM) ± SD): 1.2 ± 0.5 µM

O=C[C@H](C[C@@H]1CCNC1=O)NC(=O)[C@H](CC1CCCCC1)NC(=O)OC1(c2cccc(Cl)c2)CC1 [Compound 5q]
CC50 [5]: 36.5 ± 7.1 µM
EC50 ([2]; Norovirus, HG23, read-out: EC50 (μM) ± SD): 0.25 ± 0.07 µM
IC50 [4]: 0.28 ± 0.06 µM

CC(C)C[C@H](NC(=O)OC1CCCCC1)C(=O)N[C@@H](C[C@@H]1CCNC1=O)C(O)S(=O)(=O)[O-].[Na+] (stereo partly drawn) [Compound 7a (Scheme 1), sodium (2S)-2-((S)-2-(((cyclohexyloxy)carbonyl)amino)-4-methylpentanamido)-1-hydroxy-3-((S)-2-oxopyrrolidin-3-yl)propane-1-sulfonate]
EC50 [6]: 0.07 µM
CC50 at 72 h [7]: > 100 µM
EC50 values against MERS-CoV in cell culture (in words) [8]: submicromolar
EC50 [8]: 0.08 µM
IC50 [9]: 3.5 µM
EC50 [10]: 0.08 µM
IC50 [11]: 3.8 µM
IC50 [3, 15]: 0.15 µM

CC(C)C[C@H](NC(=O)OC1CCC(F)(F)CC1)C(=O)N[C@@H](C[C@@H]1CCNC1=O)C(O)S(=O)(=O)[O-].[Na+] (stereo partly drawn) [Compound 7h (Scheme 1), sodium (2S)-2-((S)-2-((((4,4-difluorocyclohexyl)oxy)carbonyl)amino)-4-methylpentan-amido)-1-hydroxy-3-((S)-2-oxopyrrolidin-3-yl)propane-1-sulfonate]
EC50 [6]: 0.12 µM
CC50 at 72 h [7]: > 100 µM
EC50 values against MERS-CoV in cell culture (in words) [8]: submicromolar
EC50 [8]: 0.21 µM
EC50 [10]: 0.11 µM
IC50 [11]: 2.2 µM
IC50 [3, 15]: 0.08 µM

CC(C)C[C@H](NC(=O)OCC1CCC(F)(F)CC1)C(=O)N[C@@H](C[C@@H]1CCNC1=O)C(O)S(=O)(=O)O (stereo partly drawn) [Compound 7j (Scheme 1), sodium (2S)-2-((S)-2-((((4,4-difluorocyclohexyl)methoxy)carbonyl)amino)-4-methylpentan-amido)-1-hydroxy-3-((S)-2-oxopyrrolidin-3-yl)propane-1-sulfonate]
EC50 [6]: 0.07 µM
CC50 at 72 h [7]: > 100 µM
EC50 [10]: 0.16 µM
IC50 [11]: 1.1 µM
IC50 [3, 15]: 0.1 µM

((1s,4S)-4-Propylcyclohexyl) methyl-d2 ((2S)-4-methyl-1-oxo-1-(((2S)-1-oxo-3-(2-oxopyrrolidin-3-yl) propan-2-yl) amino) pentan-2-yl) carbamate [Compound 9b]
CC50 [12]: > 100 µM

Sodium (2S)-1-hydroxy-2-((S)-4-methyl-2-(((((1s,4S)-4-propylcyclohexyl) methoxy-d2) carbonyl) amino) pentanamido)-3-(2-oxopyrrolidin-3-yl) propane-1-sulfonate [Compound 9c]
CC50 [12]: > 100 µM

Sodium (2S)-1-hydroxy-2-((S)-4-methyl-2-(((((1s,4S)-4-propylcyclohexyl)oxy)carbonyl) amino)pentanamido)-3-((S)-2-oxopyrrolidin-3-yl)propane-1-sulfonate [Compound 3c]
CC50 [12]: > 100 µM

Sodium (2S)-2-((S)-2-((((4,4-difluorocyclohexyl) methoxy-d2) carbonyl) amino)-4-methylpentanamido)-1-hydroxy-3-(2-oxopyrrolidin-3-yl) propane-1-sulfonate [Compound 11c]
CC50 [12]: > 100 µM
